Assay results as given in ChEMBL document CHEMBL1629561, “Inhibition of Bacillus anthracis spore outgrowth by nisin” (Antimicrob Agents Chemother, 2008).
Calls of active or inactive are those of the source. The rule behind the calls is not given here.

Experiments:
Bacillus anthracis [1] = test: Antibacterial activity against Bacillus anthracis spores assessed as loss of membrane integrity at 0.1 uM by flow cytometry relative to control; type: functional, organism-based
Bacillus anthracis [2] = test: Antibacterial activity against Bacillus anthracis spores assessed as reduction in membrane potential at 10 uM; type: functional, organism-based
Bacillus anthracis [3] = test: Antibacterial activity against Bacillus anthracis spores assessed as reduction in membrane potential at 1 uM; type: functional, organism-based
Bacillus anthracis [4] = test: Antibacterial activity against Bacillus anthracis spores assessed as loss of membrane integrity at 0.01 uM by flow cytometry relative to control; type: functional, organism-based
Bacillus anthracis [5] = test: Antibacterial activity against Bacillus anthracis spores assessed as loss of membrane integrity at 10 uM by flow cytometry relative to control; type: functional, organism-based
Bacillus anthracis [6] = test: Antibacterial activity against Bacillus anthracis spores assessed as reduction in membrane potential at 0.01 uM; type: functional, organism-based
Bacillus anthracis [7] = test: Antibacterial activity against Bacillus anthracis spores assessed as reduction in membrane potential at 0.1 uM; type: functional, organism-based
Bacillus anthracis [8] = test: Antibacterial activity against Bacillus anthracis spores assessed as inhibition of growth of replicating vegetative bacteria at 1 uM after 5 hrs; type: functional, organism-based
Bacillus anthracis [9] = test: Antibacterial activity against Bacillus anthracis spores assessed as loss of membrane integrity at 1 uM by flow cytometry relative to control; type: functional, organism-based
Bacillus anthracis [10] = test: Antibacterial activity against Bacillus anthracis spores assessed as inhibition of growth of replicating vegetative bacteria at 0.1 uM after 50 minutes; type: functional, organism-based
Bacillus anthracis [11] = test: Antibacterial activity against Bacillus anthracis spores assessed as decrease in spore germination initiation at 10 uM preincubated with germination medium measured after 18 hrs; type: functional, organism-based
Bacillus anthracis [12] = test: Antibacterial activity against Bacillus anthracis spores assessed as reduction in membrane potential at 10 uM after 5 hrs by flow cytometry; type: functional, organism-based
Bacillus anthracis [13] = test: Antibacterial activity against Bacillus anthracis spores assessed as inhibition of growth of replicating vegetative bacteria at 100 uM; type: functional, organism-based
Bacillus anthracis [14] = test: Antibacterial activity against Bacillus anthracis spores assessed as reduction in membrane potential at 100 uM after 5 hrs by flow cytometry; type: functional, organism-based
Bacillus anthracis [15] = test: Antibacterial activity against Bacillus anthracis spores assessed as reduction in membrane potential at 0.1 uM after 10 hrs by flow cytometry; type: functional, organism-based
Bacillus anthracis [16] = test: Antibacterial activity against Bacillus anthracis spores assessed as reduction in membrane potential at 1 uM after 5 hrs by flow cytometry; type: functional, organism-based
Bacillus anthracis [17] = test: Antibacterial activity against Bacillus anthracis spores assessed as loss of membrane integrity at 100 uM by flow cytometry relative to control; type: functional, organism-based
Bacillus anthracis [18] = test: Antibacterial activity against Bacillus anthracis assessed as effect on germination initiation-associated loss in spore heat resistance after 5 mins by spectroscopy; type: functional
Bacillus anthracis [19] = test: Antibacterial activity against Bacillus anthracis spores assessed as reduction in membrane potential at 0.1 uM after 5 hrs by flow cytometry; type: functional, organism-based
Bacillus anthracis [20] = test: Antibacterial activity against Bacillus anthracis spores assessed as reduction in membrane potential at 100 uM after 10 hrs by flow cytometry; type: functional, organism-based
Bacillus anthracis [21] = test: Antibacterial activity against Bacillus anthracis spores assessed as inhibition of growth of replicating vegetative bacteria at 1 uM; type: functional, organism-based
Bacillus anthracis [22] = test: Antibacterial activity against Bacillus anthracis spores assessed as loss of exosporium by transmission electron microscopy; type: functional, organism-based
Bacillus anthracis [23] = test: Antibacterial activity against Bacillus anthracis spores assessed as loss of spore cortex by transmission electron microscopy; type: functional, organism-based
Bacillus anthracis [24] = test: Antibacterial activity against Bacillus anthracis assessed as effect on spore germination initiation after 5 mins by spectroscopy in presence of 0.1 M MOPS nongerminating condition; type: functional, organism-based
Bacillus anthracis [25] = test: Antibacterial activity against Bacillus anthracis spores assessed as reduction in membrane potential at 1 uM after 10 hrs by flow cytometry; type: functional, organism-based
Bacillus anthracis [26] = test: Antibacterial activity against Bacillus anthracis spores assessed as inhibition of spore germination at 10 uM preincubated for 5 mins with germinating medium measured after 18 hrs; type: functional, organism-based
Bacillus anthracis [27] = test: Antibacterial activity against Bacillus anthracis spores assessed as reduction in membrane potential at 10 uM after 10 hrs by flow cytometry; type: functional, organism-based
Bacillus anthracis [28] = test: Antibacterial activity against Bacillus anthracis spores assessed as loss of spore coat by transmission electron microscopy; type: functional, organism-based
Bacillus anthracis [29] = test: Antibacterial activity against Bacillus anthracis spores assessed as inhibition of growth of replicating vegetative bacteria at 10 uM; type: functional, organism-based
Bacillus anthracis [30] = test: Antibacterial activity against Bacillus anthracis assessed as effect on hydration of spore structure-associated loss in refractility after 10 min by spectroscopy; type: functional

For `O=C(O)c1cn(C2CC2)c2cc(N3CCNCC3)c(F)cc2c1=O`, the Activity (Bacillus anthracis [1]) was “Active”, the Activity (Bacillus anthracis [2]) was “inactive” and the Activity (Bacillus anthracis [3]) was “inactive”. The Activity (Bacillus anthracis [4]) was “Active”, the Activity (Bacillus anthracis [5]) was “Active” and the Activity (Bacillus anthracis [6]) was “inactive”. The Activity (Bacillus anthracis [7]) was “inactive”, the inhibition (Bacillus anthracis [8]) was “inactive” and the Activity (Bacillus anthracis [9]) was “Active”.
In the case of `C=C(NC(=O)[C@@H](NC(=O)[C@H](Cc1cnc[nH]1)NC(=O)[C@@H](NC(=O)[C@H](CO)NC(=O)[C@@H]1CS[C@@H](C)[C@H]2NC(=O)C(=C)NC(=O)[C@H](NC(=O)[C@H](CCCCN)NC(=O)[C@H](CCSC)NC(=O)[C@H](CC(N)=O)NC(=O)[C@@H]3CS[C@@H](C)[C@@H](NC(=O)[C@H](CCCNN)NC(=O)[C@@H]4CS[C@@H](C)[C@@H](NC(=O)[C@@H]5CSC[C@@H](NC(=O)/C(=C\C)NC(=O)[C@@H](N)[C@@H](C)CC)C(=O)N[C@@H]([C@@H](C)CC)C(=O)NC(=C)C(=O)N[C@@H]([C@@H](C)CC)C(=O)N5)C(=O)N5CCC[C@H]5C(=O)NCC(=O)N4)C(=O)NCC(=O)N[C@@H](C)C(=O)N[C@@H]([C@@H](C)CC)C(=O)N[C@@H](CCSC)C(=O)NCC(=O)N3)[C@H](C)SC[C@H](NC2=O)C(=O)N[C@H](Cc2cnc[nH]2)C(=O)N1)[C@@H](C)CC)C(C)C)C(=O)N[C@@H](CCCCN)C(=O)O` [NISIN], the Activity (Bacillus anthracis [1]) is reported as “Active”, the “growth inhibition (GI)” value (Bacillus anthracis [10]) is reported as “Active” and the inhibition (Bacillus anthracis [11]) is reported as “Active”. For the same molecule, the Activity (Bacillus anthracis [12]) was “Active”, the “growth inhibition (GI)” value (Bacillus anthracis [13]) was “Active” and the Activity (Bacillus anthracis [14]) was “Active”. For the same molecule, the inhibition (Bacillus anthracis [15]) was “inactive”, the Activity (Bacillus anthracis [16]) was “Active” and the Activity (Bacillus anthracis [17]) was “Active”. The Activity (Bacillus anthracis [18]) was >80%, the Activity (Bacillus anthracis [5]) was “Active” and the inhibition (Bacillus anthracis [19]) was “inactive”. For the same molecule, the Activity (Bacillus anthracis [20]) was “Active”, the “growth inhibition (GI)” value (Bacillus anthracis [21]) was “Active” and the Activity (Bacillus anthracis [22]) was “inactive”. The Activity (Bacillus anthracis [23]) was “inactive”, the Activity (Bacillus anthracis [24]) was “inactive” and the Activity (Bacillus anthracis [25]) was “Active”. The inhibition (Bacillus anthracis [26]) was “Active”, the Activity (Bacillus anthracis [27]) was “Active” and the Activity (Bacillus anthracis [9]) was “Active”. The Activity (Bacillus anthracis [28]) was “inactive”, the “growth inhibition (GI)” value (Bacillus anthracis [29]) was “Active” and the Activity (Bacillus anthracis [30]) was >65%.
